Measured values taken from US12377100B2 (GILEAD SCIENCES, INC., priority 2015, dated 2025).

Key:
Type in all cases: cell-based
Details in all cases: human PBMCs, 24 hours incubation
IL12p40 = assay: PBMC cytokine profiling assay, IL12-p40 induction
Method: (§1) Certain compounds disclosed herein we tested according to the procedure described below. Additionally, certain reference compounds were prepared and tested along with the compounds of the present disclosure.
(§2) Compounds were dissolved and stored in DMSO (Sigma-Aldrich, St. Louis, MO) at 10 mM concentration.
(§3) Cryopreserved human PBMCs isolated from healthy donors were purchased from StemCell Technologies (Vancouver, Canada). Cell culture medium used was RPMI with L-Glutamine (Mediatech, Manassas, VA) supplemented with 10% fetal bovine serum (Hyclone, GE Healthcare, Logan, UT) and Penicillin-Streptomycin (Mediatech). Human TNFα, IL12p40, and IFNα2a 384-well Assay capture plates, standards, buffers and processing reagents were obtained from MesoScale Discovery Technologies (MSD; Rockville, MD).
(§4) Cryopreserved human PBMCs (1×10e8 cells/ml) were thawed at 37° C. and resuspended in 25 mL warm cell culture medium. The cells were pelleted at 200×g (Beckman Avanti J-E) for 5 min and resuspended in 20 mL of fresh culture media. Cells were counted using a Cellometer (Nexcelcom Bioscience), adjusted to 2×10e6 cells, and incubated for 2 hours in an incubator set at 37° C., 5% CO2 to recover from cryopreservation. Compounds were serially diluted in DMSO at half-log steps to generate a 10-point dose range. Using a Bravo pipette equipped with a 384 well head (Agilent), 0.4 μL of compound was transferred to each well of a 384 well black, clear bottom plate (Greiner Bio-One, Germany) containing 30 μL of cell culture medium. Recovered PBMCs were then dispensed into the assay plate at 50 μL per well (100k cells/well) using the MicroFlow multichannel dispenser (Biotek). Final DMSO concentration was 0.5%. DMSO was used as the negative control. The plates were incubated for 24 hours at 37° C. PBMCs in the assay plate were pelleted by centrifugation (Beckman Avanti J-E) at 200×g for 5 min.
(§5) Using a Biomek FX 384 well pipetting station (Beckman), conditioned culture medium (CCM) from the assay plate was transferred to MSD capture plates customized for each cytokine. For IFNα and IL12-p40 detection, 25 μL and 20 μL of CCM were added directly to each capture plate, respectively. For TNFα detection, CCM was diluted 1:9 in fresh culture medium, and 20 μL of diluted CCM was used. Serially diluted calibration standards for each cytokine were used to generate standard curves and establish assay linearity. The plates were sealed and incubated overnight at 4° C. in a plate shaker (Titer Plate) set at 200 rpm. On the following day, antibodies specific for each cytokine were diluted 1:50 in MSD Diluent 100 antibody dilution buffer. Diluted antibodies were added to corresponding capture plates at 10 μL/well, and incubated at RT for 1-2 hrs in the shaker. The plates were washed with PBST buffer (3×, 60 μl/well) using a Biotek Multiflow plate washer. MSD Read Buffer diluted to 2× in deionized water and 35 μL/well was added via Biomek FX instrument. The plates were read immediately in a MSD6000 reader. Data were normalized to positive and negative controls in each assay plate. AC50 values represent compound concentrations at half-maximal effect based on normalized percent activation and calculated by non-linear regression using Pipeline Pilot software (Accelrys, San Diego, CA).

TNFα = assay: PBMC cytokine profiling assay, TNFα induction
Method: as §1, §2, §3, §4, §5

IFNα = assay: PBMC cytokine profiling assay, IFNα induction
Method: as §1, §2, §3, §4, §5

CCCC[C@@H](Nc1nc(N)nc2cccnc12)C(=O)NCCO [Example 54, (R)-2-((2-aminopyrido[3,2-d]pyrimidin-4-yl)amino)-N-(2-hydroxyethyl)hexanamide]
AC50 (IL12p40; Homo sapiens, PBMC, 24 h): 42.5 µM | AC50 (TNFα; Homo sapiens, PBMC, 24 h): 34 µM | AC50 (IFNα; Homo sapiens, PBMC, 24 h): > 50 µM

CCCC[C@@H](Nc1nc(N)nc2cccnc12)c1ncc[nH]1 [Example 55, (R)—N^4-(1-(1H-imidazol-2-yl)pentyl)pyrido[3,2-d]pyrimidine-2,4-diamine]
AC50 (IL12p40; Homo sapiens, PBMC, 24 h): 21.5 µM | AC50 (TNFα; Homo sapiens, PBMC, 24 h): 23.9 µM | AC50 (IFNα; Homo sapiens, PBMC, 24 h): 28.8 µM

CCCC[C@@H](Nc1nc(N)nc2cccnc12)c1nnc[nH]1 [Example 56, (R)—N^4-(1-(4H-1,2,4-triazol-3-yl)pentyl)pyrido[3,2-d]pyrimidine-2,4-diamine]
AC50 (IL12p40; Homo sapiens, PBMC, 24 h): 3.4 µM | AC50 (TNFα; Homo sapiens, PBMC, 24 h): 3.6 µM | AC50 (IFNα; Homo sapiens, PBMC, 24 h): 1.9 µM

CCCC[C@H](CO)Nc1nc(N)nc2c(C)ccnc12 [Example 57, (R)-2-((2-amino-8-methylpyrido[3,2-d]pyrimidin-4-yl)amino)hexan-1-ol]
AC50 (IL12p40; Homo sapiens, PBMC, 24 h): 9.7 µM | AC50 (TNFα; Homo sapiens, PBMC, 24 h): 11 µM | AC50 (IFNα; Homo sapiens, PBMC, 24 h): > 50 µM

CCCC[C@@H](CO)Nc1nc(N)nc2c(C)ccnc12 [Example 58, (S)-2-((2-amino-8-methylpyrido[3,2-d]pyrimidin-4-yl)amino)hexan-1-ol]
AC50 (IL12p40; Homo sapiens, PBMC, 24 h): 3.8 µM | AC50 (TNFα; Homo sapiens, PBMC, 24 h): 3.9 µM | AC50 (IFNα; Homo sapiens, PBMC, 24 h): 4.1 µM

CCCC[C@@](C)(CO)Nc1nc(N)nc2cccnc12 [Example 60, (S)-2-((2-aminopyrido[3,2-d]pyrimidin-4-yl)amino)-2-methylhexan-1-ol]
AC50 (IL12p40; Homo sapiens, PBMC, 24 h): 2.3 µM | AC50 (TNFα; Homo sapiens, PBMC, 24 h): 2.6 µM | AC50 (IFNα; Homo sapiens, PBMC, 24 h): 7.9 µM

CCCCC(C)(CO)Nc1nc(N)nc2cc(F)cnc12 (stereo not drawn) [Example 63, 2-((2-amino-7-fluoropyrido[3,2-d]pyrimidin-4-yl)amino)-2-methylhexan-1-ol]
AC50 (IL12p40; Homo sapiens, PBMC, 24 h): 0.43 µM | AC50 (TNFα; Homo sapiens, PBMC, 24 h): 0.41 µM | AC50 (IFNα; Homo sapiens, PBMC, 24 h): 22.4 µM

CCCC[C@](C)(CNC(C)=O)Nc1nc(N)nc2cc(C)cnc12 [Example 66, (R)—N-(2-((2-amino-7-methylpyrido[3,2-d]pyrimidin-4-yl)amino)-2-methylhexyl)acetamide]
AC50 (IL12p40; Homo sapiens, PBMC, 24 h): 0.03 µM | AC50 (TNFα; Homo sapiens, PBMC, 24 h): 0.04 µM | AC50 (IFNα; Homo sapiens, PBMC, 24 h): 1.6 µM

CCC[C@@H](CO)Nc1nc(N)nc2cc(F)c(C)nc12 [Example 67, (S)-2-((2-amino-7-fluoro-6-methylpyrido[3,2-d]pyrimidin-4-yl)amino)pentan-1-ol]
AC50 (IL12p40; Homo sapiens, PBMC, 24 h): 3.9 µM | AC50 (TNFα; Homo sapiens, PBMC, 24 h): 6.3 µM | AC50 (IFNα; Homo sapiens, PBMC, 24 h): 23 µM

CCCC[C@H](CO)Nc1nc(N)nc2cc(O)cnc12 [Example 68, (R)-2-amino-4-((1-hydroxyhexan-2-yl)amino)pyrido[3,2-d]pyrimidin-7-ol]
AC50 (IL12p40; Homo sapiens, PBMC, 24 h): 14.2 µM | AC50 (TNFα; Homo sapiens, PBMC, 24 h): 11.1 µM | AC50 (IFNα; Homo sapiens, PBMC, 24 h): > 50 µM

C=Cc1cnc2c(N[C@@H](CO)CCCC)nc(N)nc2c1 [Example 70, (R)-2-((2-amino-7-vinylpyrido[3,2-d]pyrimidin-4-yl)amino)hexan-1-ol]
AC50 (IL12p40; Homo sapiens, PBMC, 24 h): 2.7 µM | AC50 (TNFα; Homo sapiens, PBMC, 24 h): 3.3 µM | AC50 (IFNα; Homo sapiens, PBMC, 24 h): > 50 µM

CCCC[C@H](CO)Nc1nc(N)nc2cc(CC)cnc12 [Example 71, (R)-2-((2-amino-7-ethylpyrido[3,2-d]pyrimidin-4-yl)amino)hexan-1-ol]
AC50 (IL12p40; Homo sapiens, PBMC, 24 h): 2.7 µM | AC50 (TNFα; Homo sapiens, PBMC, 24 h): 2.6 µM | AC50 (IFNα; Homo sapiens, PBMC, 24 h): > 50 µM

C=CCC[C@H](CO)Nc1nc(N)nc2cccnc12 [Example 72, (R)-2-((2-aminopyrido[3,2-d]pyrimidin-4-yl)amino)hex-5-en-1-ol]
AC50 (IL12p40; Homo sapiens, PBMC, 24 h): 7 µM | AC50 (TNFα; Homo sapiens, PBMC, 24 h): 7.2 µM | AC50 (IFNα; Homo sapiens, PBMC, 24 h): > 50 µM

CC(F)CC[C@H](CO)Nc1nc(N)nc2cccnc12 (stereo partly drawn) [Example 73, (2R)-2-((2-aminopyrido[3,2-d]pyrimidin-4-yl)amino)-5-fluorohexan-1-ol]
AC50 (IL12p40; Homo sapiens, PBMC, 24 h): 1.3 µM | AC50 (TNFα; Homo sapiens, PBMC, 24 h): 1.3 µM | AC50 (IFNα; Homo sapiens, PBMC, 24 h): > 50 µM

Nc1nc(N[C@@H](CO)CCCCF)c2ncccc2n1 [Example 74, (R)-2-((2-aminopyrido[3,2-d]pyrimidin-4-yl)amino)-6-fluorohexan-1-ol]
AC50 (IL12p40; Homo sapiens, PBMC, 24 h): 9.6 µM | AC50 (TNFα; Homo sapiens, PBMC, 24 h): 9.1 µM | AC50 (IFNα; Homo sapiens, PBMC, 24 h): > 50 µM

CCCCC[C@H](CO)Nc1nc(N)nc2cccnc12 [Example 75, (R)-2-((2-aminopyrido[3,2-d]pyrimidin-4-yl)amino)heptan-1-ol]
AC50 (IL12p40; Homo sapiens, PBMC, 24 h): 3.3 µM | AC50 (TNFα; Homo sapiens, PBMC, 24 h): 4 µM | AC50 (IFNα; Homo sapiens, PBMC, 24 h): 20.3 µM

CC(C)CC[C@H](CO)Nc1nc(N)nc2cccnc12 [Example 76, (R)-2-((2-aminopyrido[3,2-d]pyrimidin-4-yl)amino)-5-methylhexan-1-ol]
AC50 (IL12p40; Homo sapiens, PBMC, 24 h): 31.8 µM | AC50 (TNFα; Homo sapiens, PBMC, 24 h): 36.9 µM | AC50 (IFNα; Homo sapiens, PBMC, 24 h): 36.9 µM

C=C(C)CC[C@H](CO)Nc1nc(N)nc2cccnc12 [Example 77, (R)-2-((2-aminopyrido[3,2-d]pyrimidin-4-yl)amino)-5-methylhex-5-en-1-ol]
AC50 (IL12p40; Homo sapiens, PBMC, 24 h): 43.6 µM | AC50 (TNFα; Homo sapiens, PBMC, 24 h): 43.6 µM | AC50 (IFNα; Homo sapiens, PBMC, 24 h): 43.6 µM

CC(F)(F)CC[C@H](CO)Nc1nc(N)nc2cccnc12 [Example 78, (R)-2-((2-aminopyrido[3,2-d]pyrimidin-4-yl)amino)-5,5-difluorohexan-1-ol]
AC50 (IL12p40; Homo sapiens, PBMC, 24 h): 14.2 µM | AC50 (TNFα; Homo sapiens, PBMC, 24 h): 16 µM | AC50 (IFNα; Homo sapiens, PBMC, 24 h): > 50 µM

CCC(F)(F)C[C@H](CO)Nc1nc(N)nc2cccnc12 [Example 79, (R)-2-((2-aminopyrido[3,2-d]pyrimidin-4-yl)amino)-4,4-difluorohexan-1-ol]
AC50 (IL12p40; Homo sapiens, PBMC, 24 h): 11.5 µM | AC50 (TNFα; Homo sapiens, PBMC, 24 h): 9.1 µM | AC50 (IFNα; Homo sapiens, PBMC, 24 h): > 50 µM

CCC[C@](C)(CO)Nc1nc(N)nc2cccnc12 [Example 80, (R)-2-((2-aminopyrido[3,2-d]pyrimidin-4-yl)amino)-2-methylpentan-1-ol]
AC50 (IL12p40; Homo sapiens, PBMC, 24 h): 2.4 µM | AC50 (TNFα; Homo sapiens, PBMC, 24 h): 2.7 µM | AC50 (IFNα; Homo sapiens, PBMC, 24 h): > 50 µM

C=CC[C@](C)(CO)Nc1nc(N)nc2cccnc12 [Example 81, (R)-2-((2-aminopyrido[3,2-d]pyrimidin-4-yl)amino)-2-methylpent-4-en-1-ol]
AC50 (IL12p40; Homo sapiens, PBMC, 24 h): 7.8 µM | AC50 (TNFα; Homo sapiens, PBMC, 24 h): 7.6 µM | AC50 (IFNα; Homo sapiens, PBMC, 24 h): > 50 µM

CCCC[C@H](CO)Nc1nc(N)nc2cc(Br)cnc12 [Example 82, (R)-2-((2-amino-7-bromopyrido[3,2-d]pyrimidin-4-yl)amino)hexan-1-ol]
AC50 (IL12p40; Homo sapiens, PBMC, 24 h): 14.3 µM | AC50 (TNFα; Homo sapiens, PBMC, 24 h): 16.6 µM | AC50 (IFNα; Homo sapiens, PBMC, 24 h): > 50 µM

C=CCC[C@](C)(CO)Nc1nc(N)nc2cccnc12 [Example 83, (R)-2-((2-aminopyrido[3,2-d]pyrimidin-4-yl)amino)-2-methylhex-5-en-1-ol]
AC50 (IL12p40; Homo sapiens, PBMC, 24 h): 1.8 µM | AC50 (TNFα; Homo sapiens, PBMC, 24 h): 1.7 µM | AC50 (IFNα; Homo sapiens, PBMC, 24 h): 43.1 µM

C=CCC[C@](C)(CO)Nc1nc(N)nc2cc(F)cnc12 [Example 84, (R)-2-((2-amino-7-fluoropyrido[3,2-d]pyrimidin-4-yl)amino)-2-methylhex-5-en-1-ol]
AC50 (IL12p40; Homo sapiens, PBMC, 24 h): 3.9 µM | AC50 (TNFα; Homo sapiens, PBMC, 24 h): 3 µM | AC50 (IFNα; Homo sapiens, PBMC, 24 h): > 50 µM

CCCCC(CC)(CO)Nc1nc(N)nc2cccnc12 (stereo not drawn) [Example 85, 2-((2-aminopyrido[3,2-d]pyrimidin-4-yl)amino)-2-ethylhexan-1-ol]
AC50 (IL12p40; Homo sapiens, PBMC, 24 h): 0.8 µM | AC50 (TNFα; Homo sapiens, PBMC, 24 h): 0.86 µM | AC50 (IFNα; Homo sapiens, PBMC, 24 h): 4 µM

CCCC[C@@H](Nc1nc(N)nc2cccnc12)[C@H](C)O [Example 86]
AC50 (IL12p40): 2.4 µM | AC50 (TNFα): 2.9 µM | AC50 (IFNα): 37.4 µM
